The values below come from paper PMC7930286 (Heliyon, 2021).

SMILES strings stand for the structures.

One data set has as its system α-amylase. The data set is described as follows: Inhibitory assay of α-amylase. Type of data set: biochemical. The conditions noted are these: for Alpha-amylase % inhibition (mean ± SEM): n = 3.
Data set [1] is described as follows: DPPH free radical scavenging assay. Particulars: for DPPH Percent inhibition (mean ± S.E.M): n = 3.
The nature of data set [2]: ABTS free radical scavenging assay. Particulars: for ABTS percent inhibition (mean ± S.E.M): n = 3.
The target of data set [3] is butyrylcholinesterase (BChE) (Homo sapiens, UniProt P06276). The data set is described as follows: Anticholinesterase. Type of data set: biochemical. The conditions noted are these: for inhibition at 62.5 µg/mL: read-out: Percent BChE inhibition (mean ± SEM), 62.5 μg/mL; for inhibition at 125 µg/mL: read-out: Percent BChE inhibition (mean ± SEM), 125 μg/mL; for inhibition at 250 µg/mL: read-out: Percent BChE inhibition (mean ± SEM), 250 μg/mL; for inhibition at 500 µg/mL: read-out: Percent BChE inhibition (mean ± SEM), 500 μg/mL; for inhibition at 1000 µg/mL: read-out: Percent BChE inhibition (mean ± SEM), 1000 μg/mL.

Data set [4] is described as follows: Solubility description of isolated compounds. Type of data set: physicochemical.
For data set [5], the target named is acetylcholinesterase (AChE) (Homo sapiens, UniProt P22303). In words: biochemical. Particulars: for inhibition at 62.5 µg/mL / inhibition at 250 µg/mL / inhibition at 500 µg/mL / inhibition at 1000 µg/mL: read-out: Percent AChE inhibition (mean ± SEM).
The target in the next data set is α-glucosidase. In words: Inhibitory assay of α-glucosidase. Type of data set: biochemical. Particulars: for Alpha-glucosidase %inhibition (mean ± SEM): n = 3.

acetylcholinesterase (AChE), sequence (P22303 32-614, species assumed): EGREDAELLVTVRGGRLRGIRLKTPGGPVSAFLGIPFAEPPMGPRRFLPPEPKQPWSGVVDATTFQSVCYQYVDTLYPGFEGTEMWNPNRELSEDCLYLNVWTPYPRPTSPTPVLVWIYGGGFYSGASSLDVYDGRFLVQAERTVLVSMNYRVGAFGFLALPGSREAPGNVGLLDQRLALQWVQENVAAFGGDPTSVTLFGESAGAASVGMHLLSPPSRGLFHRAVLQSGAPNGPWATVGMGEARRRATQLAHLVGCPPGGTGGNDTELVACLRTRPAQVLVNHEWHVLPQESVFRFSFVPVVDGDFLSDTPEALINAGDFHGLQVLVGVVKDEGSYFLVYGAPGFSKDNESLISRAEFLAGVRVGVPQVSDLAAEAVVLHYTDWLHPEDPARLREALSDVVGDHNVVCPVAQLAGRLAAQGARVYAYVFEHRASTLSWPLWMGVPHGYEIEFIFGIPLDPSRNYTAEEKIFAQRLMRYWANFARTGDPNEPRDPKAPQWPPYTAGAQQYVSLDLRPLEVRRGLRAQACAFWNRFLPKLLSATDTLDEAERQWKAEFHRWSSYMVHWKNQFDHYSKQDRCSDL
butyrylcholinesterase (BChE), sequence (P06276 29-602, species assumed): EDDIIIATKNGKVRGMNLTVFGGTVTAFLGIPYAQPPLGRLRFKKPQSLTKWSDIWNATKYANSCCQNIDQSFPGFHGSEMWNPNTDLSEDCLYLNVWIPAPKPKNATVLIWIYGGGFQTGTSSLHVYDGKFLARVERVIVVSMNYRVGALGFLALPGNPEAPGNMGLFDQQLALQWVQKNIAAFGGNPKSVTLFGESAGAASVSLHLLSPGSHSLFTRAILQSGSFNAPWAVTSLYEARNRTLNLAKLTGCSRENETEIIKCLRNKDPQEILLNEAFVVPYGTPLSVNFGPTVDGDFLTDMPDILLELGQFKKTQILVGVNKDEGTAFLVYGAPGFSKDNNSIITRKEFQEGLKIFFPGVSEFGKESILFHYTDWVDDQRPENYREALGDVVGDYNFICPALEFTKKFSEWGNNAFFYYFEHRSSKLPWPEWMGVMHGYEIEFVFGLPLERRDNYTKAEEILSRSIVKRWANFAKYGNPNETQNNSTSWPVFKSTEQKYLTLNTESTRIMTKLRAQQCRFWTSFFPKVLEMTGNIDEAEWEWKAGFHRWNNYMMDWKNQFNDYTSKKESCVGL

`C[C@H]1O[C@H](O[C@H]2[C@H](O)[C@@H](O)[C@@H](O[C@H]3[C@H](O)[C@@H](O)C(O)O[C@@H]3CO)O[C@@H]2CO)[C@H](O)[C@@H](O)[C@@H]1N[C@H]1C=C(CO)[C@@H](O)[C@H](O)[C@H]1O` (some centres unmarked) [Acarbose, reference compound]: the “Alpha-amylase % inhibition (mean ± SEM)” value was found to be 57.0 ± 1.2% in the data set on α-amylase (125 μg/mL), 66.4 ± 1.2% with α-amylase (250 μg/mL), 77.1 ± 1.4% in the data set on α-amylase (500 μg/mL) and 92.1 ± 0.8% in the data set with α-amylase (1000 μg/mL).
`O=C1O[C@H]([C@@H](O)CO)C(O)=C1O` [Ascorbic acid, reference compound]: the “DPPH IC50” value in data set [1] was found to be 38 µg/mL. Also, the “DPPH Percent inhibition (mean ± S.E.M)” value in data set [1] (62.5 μg/mL) amounted to 52.2 ± 2.3%; in data set [1] (125 μg/mL), 63.2 ± 1.1%; in data set [1] (250 μg/mL), 73.8 ± 2.2%; in data set [1] (500 μg/mL), 84.1 ± 0.4%; in data set [1] (1000 μg/mL) it was 93.2 ± 0.1%. For the same molecule, the “ABTS IC50” value in data set [2] came to 39 µg/mL. For the same molecule, the “ABTS percent inhibition (mean ± S.E.M)” value is on record as 52.1 ± 1.1% in data set [2] (62.5 μg/mL), 72.1 ± 0.4% in data set [2] (250 μg/mL), 83.1 ± 1.1% in data set [2] (500 μg/mL) and 93.0 ± 0.7% in data set [2] (1000 μg/mL).
In the case of `COc1ccc(C(=O)O)cc1OC` [Compound VI, 3,4-dimethoxy benzoic acid], the “Percent BChE inhibition (mean ± SEM)” value in data set [3] (1000 μg/mL, n = 3) was 79.8 ± 1.4∗∗ %. Further, the figures for the inhibition at 62.5 µg/mL in data set [3] (n = 3) and in data set [5] were 47 ± 1.1% and 47.2 ± 1.5%, respectively. The inhibition at 125 µg/mL in data set [3] (n = 3) was 53.5 ± 1.6%. Moreover, the inhibition at 250 µg/mL in data set [3] (n = 3) turned out to be 61.4 ± 0.3%; in data set [5], 62.1 ± 2%. The inhibition at 500 µg/mL was 71.1 ± 1.6% in data set [3] (n = 3) and 71.2 ± 1.8% in data set [5]. For the same molecule, in data set [1], the “DPPH IC50” value was 67 µg/mL. Further, the “DPPH Percent inhibition (mean ± S.E.M)” value in data set [1] (62.5 μg/mL) was 48.2 ± 2.3 ^ns %; in data set [1] (125 μg/mL) it was 54.7 ± 2.1∗∗ %; in data set [1] (250 μg/mL), 63.7 ± 0.8∗∗∗∗ %; in data set [1] (500 μg/mL), 72.3 ± 0.3∗∗∗∗ %; in data set [1] (1000 μg/mL), 82.1 ± 1.2∗∗∗∗ %. Also, in data set [4], the “solubility (description)” value is “soluble in organic solvents”. The “ABTS IC50” value in data set [2] amounted to 67 µg/mL. Further, the “ABTS percent inhibition (mean ± S.E.M)” value is on record as 48.2 ± 1.3∗∗ % in data set [2] (62.5 μg/mL), 61.1 ± 1.4∗∗∗ % in data set [2] (250 μg/mL), 71.0 ± 1.6∗∗∗∗ % in data set [2] (500 μg/mL) and 81.2 ± 1.0∗∗∗∗ % in data set [2] (1000 μg/mL). For the same molecule, in data set [5], the IC50 was 494 µM. In data set [5], the inhibition at 1000 µg/mL is 80.7 ± 1.1%. In addition, at α-amylase, the “Alpha-amylase IC50” value worked out at 112 µg/mL. In addition, the “Alpha-amylase % inhibition (mean ± SEM)” value with α-amylase (125 μg/mL) was 50.3 ± 2.4∗∗ %; with α-amylase (250 μg/mL) it was 59.1 ± 1.9∗∗∗∗ %; with α-amylase (500 μg/mL), 71.3 ± 1.7∗∗∗∗ %; with α-amylase (1000 μg/mL), 79.0 ± 3.2∗∗∗∗ %. Moreover, the “Alpha-glucosidase IC50” value on α-glucosidase stood at 84 µg/mL. For the same molecule, the “Alpha-glucosidase %inhibition (mean ± SEM)” value in the data set on α-glucosidase (125 μg/mL) is on record as 54.3 ± 1.5∗∗∗ %; with α-glucosidase (250 μg/mL), 62.5 ± 2.4∗∗∗ %; in the data set with α-glucosidase (500 μg/mL), 68.2 ± 1.7∗∗ %; with α-glucosidase (1000 μg/mL), 84.6 ± 1.5∗∗∗∗ %.
Turning to `CCCCCCCOc1ccc(C(=O)O)cc1` [Compound VII, 4-heptyloxy benzoic acid], the IC50 in data set [3] (BChE IC50) was 381 µM; in data set [5] it was 377 µM. The inhibition at 62.5 µg/mL in data set [3] (n = 3) is 47.2 ± 1.2%; in data set [5], 47.8 ± 1.3%. Besides, the inhibition at 125 µg/mL in data set [3] (n = 3) was determined as 53.4 ± 1.1%. The inhibition at 250 µg/mL in data set [3] (n = 3) came out at 62.1%; in data set [5] it was 62.3 ± 1.1%. Besides, the inhibition at 500 µg/mL in data set [3] (n = 3) worked out at 71.1 ± 0.8%; in data set [5] it was 71.5 ± 1.6%. For the same molecule, the inhibition at 1000 µg/mL worked out at 80 ± 1.1% in data set [3] (n = 3) and 80.1 ± 1.2% in data set [5]. In data set [1], the “DPPH IC50” value turned out to be 118 µg/mL. Further, the “DPPH Percent inhibition (mean ± S.E.M)” value is recorded as 46.7 ± 2.1∗∗ % in data set [1] (62.5 μg/mL); 51.9 ± 1.3∗∗ % in data set [1] (125 μg/mL); 62.5 ± 1.1∗∗∗∗ % in data set [1] (250 μg/mL); 71.2 ± 1.3∗∗∗∗ % in data set [1] (500 μg/mL); 80.4 ± 1.1∗∗∗∗ % in data set [1] (1000 μg/mL). Further, the “solubility (description)” value in data set [4] is “soluble in organic solvents”. Besides, the “ABTS IC50” value in data set [2] amounted to 115 µg/mL. Further, the “ABTS percent inhibition (mean ± S.E.M)” value in data set [2] (62.5 μg/mL) is 46.1 ± 1.9∗∗ %; in data set [2] (250 μg/mL) it was 62.1 ± 1.3∗∗∗ %; in data set [2] (500 μg/mL) it was 71.2 ± 2.1∗∗∗∗ %; in data set [2] (1000 μg/mL), 80.1 ± 1.0∗∗∗∗ %. The “Alpha-amylase IC50” value on α-amylase is 110 µg/mL. Moreover, the “Alpha-amylase % inhibition (mean ± SEM)” value in the data set with α-amylase (125 μg/mL) is given as 51.4 ± 1.5∗∗∗ %; in the data set on α-amylase (250 μg/mL) it was 61.2 ± 2.2∗ %; in the data set on α-amylase (500 μg/mL), 64.5 ± 2.8∗∗ %; with α-amylase (1000 μg/mL), 73.3 ± 1.1∗∗∗∗ %. Further, on α-glucosidase, the “Alpha-glucosidase IC50” value was 108 µg/mL.
In the case of `COc1ccc2c3c1O[C@H]1C[C@@H](O)C=C[C@@]31CCN(C)C2` [Galantamine, reference compound], in data set [3] (n = 3), the inhibition at 62.5 µg/mL amounted to 54.1 ± 1%, the inhibition at 250 µg/mL was found to be 71.8 ± 1.5%, the inhibition at 500 µg/mL stood at 81.8 ± 1.4% and the inhibition at 1000 µg/mL amounted to 92 ± 0.8%.

A word on the IC50: it is the concentration that inhibits the measured activity by half.
